From US8575091B1, “Amylin analogues and pharmaceutical compositions thereof” (Novo Nordisk A/S, priority 2012, dated 2013)
Numbered stars: 1 amine (or outer) side, 2 acyl side, 3 side chain; on linkers, the order of the positions; unused ones are H or OH. Bridge positions count the residues as written; N and C are the ends. Side chains are listed from the residue outwards. Peptide text beside a SMILES is read from it. * marks the point of attachment. C20 diacid = O=C(O)CCCCCCCCCCCCCCCCCCC(=O)*; γGlu = O=C(O)[C@H](CCC(=O)[*:2])N[*:1]; AEEA = NCCOCCOCC(=O)O

Legend:
[1] = molecular target: T1, human amylin receptor (amylin 3(a) receptor: human calcitonin receptor + RAMP-3) (Homo sapiens, UniProt O60896+P30988); experiment: Assay (II)a functional assay, human amylin receptor (CRE luciferase, BHK cells); type: cell-based
T1 construct: expressed in transfected cells
T1 sequence (P30988 25-474): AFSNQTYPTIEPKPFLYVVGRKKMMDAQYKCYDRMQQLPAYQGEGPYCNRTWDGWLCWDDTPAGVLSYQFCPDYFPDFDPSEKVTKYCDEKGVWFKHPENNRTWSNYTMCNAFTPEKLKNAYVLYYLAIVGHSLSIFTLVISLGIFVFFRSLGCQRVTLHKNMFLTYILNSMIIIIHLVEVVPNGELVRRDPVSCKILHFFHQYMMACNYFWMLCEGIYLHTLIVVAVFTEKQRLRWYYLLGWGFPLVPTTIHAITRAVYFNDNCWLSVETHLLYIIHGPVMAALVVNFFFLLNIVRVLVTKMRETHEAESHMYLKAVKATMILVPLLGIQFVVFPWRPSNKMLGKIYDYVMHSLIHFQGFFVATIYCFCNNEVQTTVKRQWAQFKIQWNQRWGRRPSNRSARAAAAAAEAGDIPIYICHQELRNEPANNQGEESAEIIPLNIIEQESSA
T1 sequence (O60896 24-148 partner): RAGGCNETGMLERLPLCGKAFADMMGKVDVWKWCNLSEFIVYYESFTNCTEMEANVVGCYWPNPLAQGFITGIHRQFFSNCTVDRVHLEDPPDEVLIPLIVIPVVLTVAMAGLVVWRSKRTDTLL

[2] = molecular target: T2, human amylin receptor (Homo sapiens, UniProt O60896+P30988); experiment: Assay (V) binding to the human amylin receptor (SPA, 125I-rat amylin); conditions: human binding ratio, included for comparison
T2 construct: expressed in transfected cells
T2 sequence (P30988 25-474): T1 sequence (P30988 25-474)
T2 sequence (O60896 24-148 partner): T1 sequence (O60896 24-148 partner)
Procedure, shortened: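 IC50, taken as receptor affinity, came from one-site binding competition analysis of scintillation proximity counts. Amylin 3(a)/CRE-luc cell membranes (35 ng/μL final) were mixed with SPA beads (0.05 mg/well) in 50 mM Hepes pH 7.4 containing CaCl2, MgCl2, 0.1% OA and 0.02% Tween20.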

[3] = molecular target: T3, rat amylin receptor (Rattus norvegicus, UniProt P32214+Q9JJ73); experiment: Assay (VI) binding to the rat amylin receptor; conditions: rCTR bind IC50 divided by rAmylin-R bind IC50
T3 construct: expressed in transfected cells; host or cells: BHK tk'ts 13 (transient, FuGENE 6), membranes
T3 sequence (P32214 25-479 isoform P32214-2 limits assumed): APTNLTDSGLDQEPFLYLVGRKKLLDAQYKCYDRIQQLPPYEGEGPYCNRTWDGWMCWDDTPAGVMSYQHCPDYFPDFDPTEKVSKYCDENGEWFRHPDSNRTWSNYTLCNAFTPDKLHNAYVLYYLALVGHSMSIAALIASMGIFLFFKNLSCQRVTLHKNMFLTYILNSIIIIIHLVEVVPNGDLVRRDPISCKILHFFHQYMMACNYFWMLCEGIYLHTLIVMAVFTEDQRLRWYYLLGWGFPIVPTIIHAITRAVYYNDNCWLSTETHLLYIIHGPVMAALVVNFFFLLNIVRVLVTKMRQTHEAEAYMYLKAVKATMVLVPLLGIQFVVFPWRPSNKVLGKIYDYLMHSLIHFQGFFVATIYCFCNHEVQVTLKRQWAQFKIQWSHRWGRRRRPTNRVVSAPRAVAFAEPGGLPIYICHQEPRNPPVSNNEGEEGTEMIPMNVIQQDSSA
T3 sequence (Q9JJ73 23-147 partner): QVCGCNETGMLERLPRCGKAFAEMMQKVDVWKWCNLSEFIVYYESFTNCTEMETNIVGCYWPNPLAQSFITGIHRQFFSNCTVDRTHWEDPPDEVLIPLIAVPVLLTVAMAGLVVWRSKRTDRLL
Experimental: Assay (VI)—Determination of the Binding to the Rat Amylin Receptor
The assay was performed as described above (Assay (V)—Determination of binding to the human amylin receptor) with the exception that we used membranes prepared from BHK tk'ts 13 cells that were transiently transfected with the rat calcitonin receptor rat RAMP 3 at an equimolar ratio […]. The BHK tk'ts 13 cells were transiently transfected with rat calcitonin receptor using FuGENE® 6 (Roche), according to the manufacturer's recommendations. Cells were grown in DMEM with 10% FBS and 1% Pen/Strep. Approximately 48 hours after transfection, the cells were harvested and membranes were prepared.

[4] = Table 6, human functional selectivity (hCTR EC50 / hAmylin-R EC50)

SMILES	Ratio hCT/hAmylin funct. [1, 4]	Ratio hCT/hAmylin funct. ([1]; hCTR funct. EC50 divided by hAmylin-R funct. EC50)	Ratio hCT/hAmylin binding [2]	Ratio rCT/rAmylin binding [3]	Ratio hCT/hAmylin funct. ([1]; Table 6i, hCTR funct. EC50 / hAmylin-R funct. EC50)	Ratio rCT/rAmylin binding ([3]; Table 7b)	Ratio rCT/rAmylin binding ([3]; Table 7c)
CC[C@H](C)[C@H](NC(=O)[C@@H]1CCCN1C(=O)CNC(=O)[C@H](Cc1ccccc1)NC(=O)[C@H](CC(N)=O)NC(=O)[C@@H]1CCCN1C(=O)[C@H](CO)NC(=O)[C@H](CO)NC(=O)[C@H](Cc1c[nH]cn1)NC(=O)[C@H](CCCNC(=N)N)NC(=O)[C@H](CC(C)C)NC(=O)[C@H](Cc1ccccc1)NC(=O)[C@H](CCC(=O)O)NC(=O)[C@H](C)NC(=O)[C@H](CC(C)C)NC(=O)[C@H](CCCNC(=N)N)NC(=O)[C@H](CCC(N)=O)NC(=O)[C@@H](NC(=O)[C@H](C)NC(=O)[C@@H]1CSSC[C@H](NC(=O)[C@H](CCCCN)NC(=O)CC[C@H](NC(=O)CCCCCCCCCCCCCCCCCCC(=O)O)C(=O)O)C(=O)N[C@@H](CC(N)=O)C(=O)N[C@@H]([C@@H](C)O)C(=O)N[C@@H](C)C(=O)N[C@@H]([C@@H](C)O)C(=O)N1)[C@@H](C)O)C(=O)N[C@@H](CC(C)C)C(=O)N1CCC[C@H]1C(=O)N1CCC[C@H]1C(=O)N[C@H](C(=O)N[C@@H](CC(N)=O)C(=O)N[C@H](C(=O)NCC(=O)N[C@@H](CO)C(=O)N[C@@H](CC(N)=O)C(=O)N[C@H](C(=O)N1CCC[C@H]1C(N)=O)[C@@H](C)O)C(C)C)[C@@H](C)O [Example 4] ({C20 diacid-γGlu}-KCNTATCATQRLAEFLRHSSPNFGPILPPTNVGSNTP-NH2; disulfide 2-7)	1.2	1.2	2.1	3.1	–	–	–
CC[C@H](C)[C@H](NC(=O)[C@H](C)NC(=O)CNC(=O)[C@H](Cc1ccccc1)NC(=O)[C@H](CC(N)=O)NC(=O)[C@@H]1CCCN1C(=O)[C@H](CO)NC(=O)[C@H](CO)NC(=O)[C@H](Cc1c[nH]cn1)NC(=O)[C@H](CCCNC(=N)N)NC(=O)[C@H](CC(C)C)NC(=O)[C@H](Cc1ccccc1)NC(=O)[C@H](CC(N)=O)NC(=O)[C@H](C)NC(=O)[C@H](CC(C)C)NC(=O)[C@H](CCCNC(=N)N)NC(=O)[C@H](CCC(N)=O)NC(=O)[C@@H](NC(=O)[C@H](C)NC(=O)[C@@H]1CSSC[C@H](NC(=O)[C@@H](N)CCCCNC(=O)COCCOCCNC(=O)CC[C@H](NC(=O)CCCCCCCCCCCCCCCCCCC(=O)O)C(=O)O)C(=O)N[C@@H](CC(N)=O)C(=O)N[C@@H]([C@@H](C)O)C(=O)N[C@@H](C)C(=O)N[C@@H]([C@@H](C)O)C(=O)N1)[C@@H](C)O)C(=O)N1CCC[C@H]1C(=O)N[C@@H](CO)C(=O)N[C@@H](CO)C(=O)N[C@H](C(=O)N[C@@H](CC(N)=O)C(=O)N[C@H](C(=O)NCC(=O)N[C@@H](CO)C(=O)N[C@@H](CC(N)=O)C(=O)N[C@H](C(=O)N[C@@H](Cc1ccc(O)cc1)C(N)=O)[C@@H](C)O)C(C)C)[C@@H](C)O [Example 41]	–	–	–	54.0	–	54.0	54.0

Second part, the compound after the results:

Ratio hCT/hAmylin funct. [1, 4]	Ratio hCT/hAmylin funct. ([1]; hCTR funct. EC50 divided by hAmylin-R funct. EC50)	Ratio hCT/hAmylin binding [2]	Ratio rCT/rAmylin binding [3]	Ratio hCT/hAmylin funct. ([1]; Table 6i, hCTR funct. EC50 / hAmylin-R funct. EC50)	Ratio rCT/rAmylin binding ([3]; Table 7b)	Ratio rCT/rAmylin binding ([3]; Table 7c)	SMILES
4.5	–	–	42.0	4.5	42.0	–	CC(C)C[C@H](NC(=O)[C@H](CCCNC(=N)N)NC(=O)[C@H](CCC(N)=O)NC(=O)[C@@H](NC(=O)[C@H](C)NC(=O)[C@@H]1CSSC[C@H](NC(=O)[C@H](CCCCN)NC(=O)CC[C@H](NC(=O)CCCCCCCCCCCCCCCCCCC(=O)O)C(=O)O)C(=O)N[C@@H](CC(N)=O)C(=O)N[C@@H]([C@@H](C)O)C(=O)N[C@@H](C)C(=O)N[C@@H]([C@@H](C)O)C(=O)N1)[C@@H](C)O)C(=O)N[C@@H](C)C(=O)N[C@@H](CCC(=O)O)C(=O)N[C@@H](Cc1ccccc1)C(=O)N[C@@H](CC(C)C)C(=O)N[C@@H](CCCNC(=N)N)C(=O)N[C@@H](Cc1c[nH]cn1)C(=O)N[C@@H](CO)C(=O)N[C@@H](CO)C(=O)N1CCC[C@H]1C(=O)N[C@@H](CC(N)=O)C(=O)N[C@@H](Cc1ccccc1)C(=O)NCC(=O)N[C@@H](C)C(=O)N1CCC[C@H]1C(=O)N[C@@H](CC(C)C)C(=O)N[C@@H](CO)C(=O)N[C@@H](CO)C(=O)N[C@H](C(=O)N[C@@H](CC(N)=O)C(=O)N[C@H](C(=O)NCC(=O)N[C@@H](CO)C(=O)N[C@@H](CC(N)=O)C(=O)N[C@H](C(=O)N[C@@H](Cc1ccc(O)cc1)C(N)=O)[C@@H](C)O)C(C)C)[C@@H](C)O [Example 7] ({C20 diacid-γGlu}-KCNTATCATQRLAEFLRHSSPNFGAPLSSTNVGSNTY-NH2; disulfide 2-7)
–	–	–	87.0	–	87.0	87.0	CC[C@H](C)[C@H](NC(=O)[C@H](C)NC(=O)CNC(=O)[C@H](Cc1ccccc1)NC(=O)[C@H](CC(N)=O)NC(=O)[C@@H]1CCCN1C(=O)[C@H](CO)NC(=O)[C@H](CO)NC(=O)[C@H](Cc1c[nH]cn1)NC(=O)[C@H](CCCNC(=N)N)NC(=O)[C@H](CC(C)C)NC(=O)[C@H](Cc1ccccc1)NC(=O)[C@H](CCCNC(=N)N)NC(=O)[C@H](C)NC(=O)[C@H](CC(C)C)NC(=O)[C@H](CCCNC(=N)N)NC(=O)[C@H](CCC(N)=O)NC(=O)[C@@H](NC(=O)[C@H](C)NC(=O)[C@@H]1CSSC[C@H](NC(=O)[C@@H](N)CCCCNC(=O)COCCOCCNC(=O)CC[C@H](NC(=O)CCCCCCCCCCCCCCCCCCC(=O)O)C(=O)O)C(=O)N[C@@H](CC(N)=O)C(=O)N[C@@H]([C@@H](C)O)C(=O)N[C@@H](C)C(=O)N[C@@H]([C@@H](C)O)C(=O)N1)[C@@H](C)O)C(=O)N1CCC[C@H]1C(=O)N[C@@H](CO)C(=O)N[C@@H](CO)C(=O)N[C@H](C(=O)N[C@@H](CC(N)=O)C(=O)N[C@H](C(=O)NCC(=O)N[C@@H](CO)C(=O)N[C@@H](CC(N)=O)C(=O)N[C@H](C(=O)N[C@@H](Cc1ccc(O)cc1)C(N)=O)[C@@H](C)O)C(C)C)[C@@H](C)O [Example 82] (H-K([AEEA-γGlu-C20 diacid])CNTATCATQRLARFLRHSSPNFGAIPSSTNVGSNTY-NH2; disulfide 2-7 (inferred); N-terminus and C-terminus assumed)
3.9	–	–	62.0	–	62.0	–	CC[C@H](C)[C@H](NC(=O)[C@H](C)NC(=O)CNC(=O)[C@H](Cc1ccccc1)NC(=O)[C@H](CC(N)=O)NC(=O)[C@@H]1CCCN1C(=O)[C@H](CO)NC(=O)[C@H](CO)NC(=O)[C@H](Cc1c[nH]cn1)NC(=O)[C@H](CCCNC(=N)N)NC(=O)[C@H](CC(C)C)NC(=O)[C@H](Cc1ccccc1)NC(=O)[C@H](CC(=O)O)NC(=O)[C@H](C)NC(=O)[C@H](CC(C)C)NC(=O)[C@H](CCCNC(=N)N)NC(=O)[C@H](CCC(N)=O)NC(=O)[C@@H](NC(=O)[C@H](C)NC(=O)[C@@H]1CSSC[C@H](NC(=O)[C@@H](N)CCCCNC(=O)CC[C@H](NC(=O)CCCCCCCCCCCCCCCCCCC(=O)O)C(=O)O)C(=O)N[C@@H](CC(N)=O)C(=O)N[C@@H]([C@@H](C)O)C(=O)N[C@@H](C)C(=O)N[C@@H]([C@@H](C)O)C(=O)N1)[C@@H](C)O)C(=O)N1CCC[C@H]1C(=O)N[C@@H](CO)C(=O)N[C@@H](CO)C(=O)N[C@H](C(=O)N[C@@H](CC(N)=O)C(=O)N[C@H](C(=O)NCC(=O)N1CCC[C@H]1C(=O)N[C@@H](CCC(=O)O)C(=O)N[C@H](C(=O)N[C@@H](Cc1ccc(O)cc1)C(N)=O)[C@@H](C)O)C(C)C)[C@@H](C)O [Example 123] (H-K([γGlu-C20 diacid])CNTATCATQRLADFLRHSSPNFGAIPSSTNVGPETY-NH2; disulfide 2-7 (inferred); N-terminus and C-terminus assumed)
